Test results reported in patent publication US10597405B2, “Chemical compounds” (ASTRAZENECA AB, priority 2017, dated 2020).

What was measured:
KRasG12C [1] = biological target: T1, KRasG12C (Homo sapiens, UniProt P01116, G12C); assay: KRasG12C functional assay (HTRF nucleotide exchange / Raf RBD binding); type: biochemical; conditions: GDP loaded biotinylated KRasG12C, samples incubated 4 hrs, FRET readout; single experiment or average of two or more
T1 construct: biotin (biotinylated); made in house
Experimental: KRasG12C Functional Assay
All enzyme and substrate solutions were prepared in assay buffer containing 20 mM HEPES (pH 7.5), 5 mM MgCl2, 150 mM NaCl, and 0.01% Tween 20. […] In a separate mix 20 nM GST-Raf Ras binding domain (GST-Raf RBD, purified in house) and 4 μg/ml anti-GST XL665 antibody (Cisbio) was prepared in assay buffer containing 50 mM Potassium Fluoride and 0.05 mg/ml BSA and equilibrated for 4 hours before adding 0.6 μM Guanosine 5′-[γ-thio]triphosphate (GTPγS, Sigma) and 0.08 μM SOS (purified in house). 5 μl of the GST-RAF RBD mix was then dispensed into each well of the assay plate. […] This is detected simultaneously via the specific binding interaction between active GTPγS KRas^G12C with GST-Raf RBD which brings the europium and XL665 into close proximity enabling an increased FRET signal to be detected on a Pherastar (BMG) plate reader equipped with the HTRF filter module. […] IC50 values were calculated from normalised dose-response response FRET data curve fitted in Genedata screener (Basel, Switzerland).

KRasG12C [2] = biological target: T1, KRasG12C; assay: KRasG12C Mass Spectrometry adducting assay; type: binding; conditions: 10 μM test compound, 4 μM KRasG12C, 4 hours reaction; single experiment or average of two or more
Experimental: KRasG12C Mass Spectrometry Adducting Assay
Enzyme solutions were prepared in assay buffer containing 20 mM HEPES (pH 7.5), 5 mM MgCl2, and 150 mM NaCl. 4 μM GDP loaded biotinylated KRas^G12C was prepared in assay buffer and 50 μl added into each well of a 96 well polypropylene assay plate (Greiner, #651201) containing 500 nl of 1 mM test compounds (final concentration 10 μM), this was allowed to react for 4 hours before the addition of 50 μl 1% Formic acid to quench the reaction. The plate was sealed before reading on a Xevo G2 QTOF (Waters) and Acquity LC system (Waters). 10 μl of sample was injected onto a Xbridge BEH300; C4; 3.5 um; 2.1×50 mm column (Waters) running a 3 minute gradient. Blank samples were run in between each test sample.
Data was analysed in Mass Lynx software (Waters), the Total ion count (TIC) trace was used and the eluted protein peak data combined. Using the combined spectrum the data was deconvoluted using MaxEnt1 method. The peak area for apo-protein KRas^G12C (APO) and KRAS+relative cmpd mass (adduct) were measured, and a percentage adduct was calculated using the following calculation: Percent adduct=100*(area of adduct peak/(sum of APO+adduct peaks)

[3] = In vivo studies: oral bioavailability and clearance; conditions: rat
[4] = Incubations with hepatic systems (turnover); type: in vitro ADME; conditions: result in words
[5] = Reactivity to glutathione (co-incubation with glutathione in buffer)

SMILES | IC50 (KRasG12C [1]) [nM] | KRasG12C M.S. Binding Mean adduct % (KRasG12C [2]) [%] | clearance [3] [mL/min/kg] | F (oral bioavailability), in words ([3]; result in words) | bioavailability ([3]; po, species not given, read-out: F value (oral bioavailability)) [%] | turnover in incubations with hepatic systems [4] | half-life [5] [h]
C=CC(=O)N1CCN2c3c(cnc4c(C)c(-c5c(O)cccc5F)c(Cl)cc34)OC[C@H]2C1 (single isomer, unassigned) [Compound 39] | 97 | 94 | 6 | complete |  |  | 
C=CC(=O)N1C[C@@H]2COc3cnc4c(C)c(-c5c(O)cccc5F)c(Cl)cc4c3N2C[C@H]1C (single isomer, unassigned) [Compound 40] | 62 | 96 |  |  | 43 |  | 
C=CC(=O)N1CCN2c3c(cnc4c(F)c(-c5c(O)cccc5F)c(Cl)cc34)N(C)C(=O)[C@H]2C1 (single isomer, unassigned) [Example 17, 3-acryloyl-11-chloro-9-fluoro-10-(2-fluoro-6-hydroxyphenyl)-6-methyl-2,3,4,4a-tetrahydro-1H-pyrazino[1′,2′:4,5]pyrazino[2,3-c]quinolin-5(6H)-one] | 18 | 100 |  |  |  | low turnover | 9.75
C=CC(=O)N1C[C@@H]2C(=O)N(C)c3cnc4c(F)c(-c5c(O)cccc5F)c(Cl)cc4c3N2C[C@H]1C (single isomer, unassigned) [Example 22] | 5 | 100 |  |  |  | low turnover | 15.5
C=CC(=O)N1CCN2c3c(cnc4cc(-c5c(O)cccc5F)c(Cl)c(OC)c34)OC[C@H]2C1 [Compound 83, 1-[(4aR)-11-Chloro-10-(2-fluoro-6-hydroxyphenyl)-12-methoxy-1,2,4a,5-tetrahydropyrazino[1′,2′:4,5][1,4]oxazino[2,3-c]quinolin-3(4H)-yl]prop-2-en-1-one] | 257 | 77 |  |  |  |  | 
CN(C)C/C=C/C(=O)N1CCN2c3c(cnc4cc(-c5c(O)cccc5F)c(Cl)cc34)OC[C@H]2C1 [Example 9, (2E)-1-[(4aR)-11-Chloro-10-(2-fluoro-6-hydroxyphenyl)-1,2,4a,5-tetrahydropyrazino[1′,2′:4,5][1,4]oxazino[2,3-c]quinolin-3(4H)-yl]-4-(dimethylamino)but-2-en-1-one] | 341 | 74 |  |  |  |  | 
C=CC(=O)N1CCN2c3c(nnc4cc(-c5c(O)cccc5F)c(Cl)cc34)OC[C@H]2C1 [Example 10, 1-((4aR)-11-Chloro-10-(2-fluoro-6-hydroxyphenyl)-1,2,4a,5-tetrahydropyrazino[1′,2′:4,5][1,4]oxazino[2,3-c]cinnolin-3(4H)-yl)prop-2-en-1-one] | 135 | 81 |  |  |  |  | 
C=CC(=O)N1C[C@@H]2COc3cnc4cc(-c5c(O)cccc5F)c(Cl)cc4c3N2C[C@H]1C [Example 11, 1-[(2R,4aR)-11-Chloro-10-(2-fluoro-6-hydroxyphenyl)-2-methyl-1,2,4a,5-tetrahydropyrazino[1′,2′:4,5][1,4]oxazino[2,3-c]quinolin-3(4H)-yl]prop-2-en-1-one] | 47 | 93 |  |  |  |  | 
C=CC(=O)N1CCN2c3c(cnc4cc(-c5c(O)cccc5F)c(Cl)cc34)N(CCN(C)C)C[C@H]2C1 [Example 12, 1-((4aS)-11-Chloro-6-(2-(dimethylamino)ethyl)-10-(2-fluoro-6-hydroxyphenyl)-1,2,4,4a,5,6-hexahydro-3H-pyrazino[1′,2′:4,5]pyrazino[2,3-c]quinolin-3-yl)prop-2-en-1-one] | 231 | 75 |  |  |  |  | 
C=CC(=O)N1CCN2c3c(cnc4cc(-c5c(O)cccc5F)c(Cl)cc34)NC[C@H]2C1 [Example 13, 1-((4aS)-11-Chloro-10-(2-fluoro-6-hydroxyphenyl)-1,2,4,4a,5,6-hexahydro-3H-pyrazino[1′,2′:4,5]pyrazino[2,3-c]quinolin-3-yl)prop-2-en-1-one] | 387 | 86 |  |  |  |  | 
C=CC(=O)N1CCN2c3c(cnc4cc(-c5c(O)cccc5F)c(Cl)cc34)N(C)C[C@H]2C1 [Example 14, 1-((4aS)-11-chloro-10-(2-fluoro-6-hydroxyphenyl)-6-methyl-1,2,4,4a,5,6-hexahydro-3H-pyrazino[1′,2′:4,5]pyrazino[2,3-c]quinolin-3-yl)prop-2-en-1-one] | 132 | 91 |  |  |  |  | 
C=CC(=O)N1CCN2c3c(cnc4cc(-c5c(O)cccc5F)c(Cl)cc34)N(C)C(=O)[C@H]2C1 [Example 15, (4aR)-3-Acryloyl-11-chloro-10-(2-fluoro-6-hydroxyphenyl)-6-methyl-2,3,4,4a-tetrahydro-1H-pyrazino[1′,2′:4,5]pyrazino[2,3-c]quinolin-5(6H)-one] | 145 | 100 |  |  |  |  | 
C=CC(=O)N1CCN2c3c(cnc4cc(-c5c(O)cccc5F)c(Cl)cc34)N(C)C(=O)[C@@H]2C1 [Example 16, (4aS)-3-Acryloyl-11-chloro-10-(2-fluoro-6-hydroxyphenyl)-6-methyl-2,3,4,4a-tetrahydro-1H-pyrazino[1′,2′:4,5]pyrazino[2,3-c]quinolin-5(6H)-one] | 2700 | 18 |  |  |  |  | 
